The values below come from US8183351B2, “Avermectin derivatives” (Bayer Cropscience AG, priority 2006, dated 2012).

Structures are written as SMILES.

One assay has as its system caterpillars of the army worm (Spodoptera frugiperda). Put plainly: Spodoptera frugiperda test (SPODFR spray treatment). It is filed as in vivo. Particulars: Example I; 4 ppm active compound; sprayed maize leaf discs. On the procedure: Spodoptera frugiperda Test (SPODFR Spray Treatment)
• Solvents: 78.0 parts by weight of acetone • 1.5 parts by weight of dimethylformamide • Emulsifier: 0.5 part by weight of alkylaryl polyglyycol ether
After the desired period of time, the effect in % is determined. 100% means that all caterpillars have been killed; 0% means that none of the caterpillars have been killed.
Take `CC[C@H](C)[C@H]1O[C@]2(C=C[C@@H]1C)C[C@@H]1C[C@@H](C/C=C(\C)[C@@H](O[C@H]3C[C@H](OC)[C@@H](OC(=O)c4ccc(Cl)cc4)[C@H](C)O3)[C@@H](C)/C=C/C=C3\CO[C@@H]4[C@H](O)C(C)=C[C@@H](C(=O)O1)[C@]34O)O2` [4′-O-(4-chlorobenzoyl)-4′-O-de(2,6-dideoxy-3-O-methyl-α-L-arabino-hexopyranosyl)-5-O-demethyl-avermectin A1a, reference compound]: the “Kill rate in % after 5 days” value was 0%.
Same read-out and setting: under `CC[C@H](C)[C@H]1OC2(C=C[C@@H]1C)C[C@@H]1C[C@@H](C/C=C(\C)[C@@H](OC3CC(OC)C(OC(=O)COC)C(C)O3)[C@@H](C)/C=C/C=C3\CO[C@@H]4[C@H](O)C(C)=CC(C(=O)O1)[C@]34O)O2` (some centres unmarked) [Example 30] stands 100%; under `CC[C@H](C)[C@H]1OC2(C=C[C@@H]1C)C[C@@H]1C[C@@H](C/C=C(\C)[C@@H](OC3CC(OC)C(OC(=O)C4CCC(=O)N4)C(C)O3)[C@@H](C)/C=C/C=C3\CO[C@@H]4[C@H](O)C(C)=CC(C(=O)O1)[C@]34O)O2` (some centres unmarked) [Example 38], 100%.
Still for that read-out and setting: as for `CC[C@H](C)[C@H]1OC2(C=C[C@@H]1C)C[C@@H]1C[C@@H](C/C=C(\C)[C@@H](OC3CC(OC)C(OC(=O)COc4ccc(Cl)cc4)C(C)O3)[C@@H](C)/C=C/C=C3\CO[C@@H]4[C@H](O)C(C)=CC(C(=O)O1)[C@]34O)O2` (some centres unmarked) [Example 39], the figure is 100%.
For the compound `CC[C@H](C)[C@H]1OC2(C=C[C@@H]1C)C[C@@H]1C[C@@H](C/C=C(\C)[C@@H](OC3CC(OC)C(OC(=O)Cc4csc(-c5ccncc5)n4)C(C)O3)[C@@H](C)/C=C/C=C3\CO[C@@H]4[C@H](O)C(C)=CC(C(=O)O1)[C@]34O)O2` (some centres unmarked) [Example 46], the “Kill rate in % after 5 days” value came to 100%.
With `CC[C@H](C)[C@H]1OC2(C=C[C@@H]1C)C[C@@H]1C[C@@H](C/C=C(\C)[C@@H](OC3CC(OC)C(OC(=O)Cc4nc(C)sc4C)C(C)O3)[C@@H](C)/C=C/C=C3\CO[C@@H]4[C@H](O)C(C)=CC(C(=O)O1)[C@]34O)O2` (some centres unmarked) [Example 47], the “Kill rate in % after 5 days” value stood at 100%.
For `CC[C@H](C)[C@H]1OC2(C=C[C@@H]1C)C[C@@H]1C[C@@H](C/C=C(\C)[C@@H](OC3CC(OC)C(OC(=O)Cn4ccnc4)C(C)O3)[C@@H](C)/C=C/C=C3\CO[C@@H]4[C@H](O)C(C)=CC(C(=O)O1)[C@]34O)O2` (some centres unmarked) [Example 49], the “Kill rate in % after 5 days” value was 100%.
For the compound `CC[C@H](C)[C@H]1OC2(C=C[C@@H]1C)C[C@@H]1C[C@@H](C/C=C(\C)[C@@H](OC3CC(OC)C(OC(=O)CCn4ccnc4)C(C)O3)[C@@H](C)/C=C/C=C3\CO[C@@H]4[C@H](O)C(C)=CC(C(=O)O1)[C@]34O)O2` (some centres unmarked) [Example 86], the “Kill rate in % after 5 days” value was 100%.
Same read-out and setting: under `CC[C@H](C)[C@H]1OC2(C=C[C@@H]1C)C[C@@H]1C[C@@H](C/C=C(\C)[C@@H](OC3CC(OC)C(OC(=O)c4ccc(OC(F)(F)F)cc4)C(C)O3)[C@@H](C)/C=C/C=C3\CO[C@@H]4[C@H](O)C(C)=CC(C(=O)O1)[C@]34O)O2` (some centres unmarked) [Example 97] stands 33%.

In the next assay the test system is larvae of the mustard beetle (Phaedon cochleariae). Put plainly: Phaedon test (PHAECO spray treatment). It is filed as in vivo. Particulars: Example D; 4 ppm active compound; sprayed Chinese cabbage discs. Here is the method: Phaedon Test (PHAECO Spray Treatment)
• Solvents: 78 parts by weight of acetone • 1.5 parts by weight of dimethylformamide • Emulsifier: 0.5 part by weight of alkylaryl polyglyycol ether
After the desired period of time, the effect in % is determined. 100% means that all beetle larvae have been killed; 0% means that none of the beetle larvae have been killed.
For `CC[C@H](C)[C@H]1OC2(C=C[C@@H]1C)C[C@@H]1C[C@@H](C/C=C(\C)[C@@H](OC3CC(OC)C(OC(=O)Cn4ccnn4)C(C)O3)[C@@H](C)/C=C/C=C3\CO[C@@H]4[C@H](O)C(C)=CC(C(=O)O1)[C@]34O)O2` (some centres unmarked) [Example 3], the “Kill rate in % after 7 days” value came to 80%.

The same assay, now with this note: Example G; 4 ppm active compound; sprayed Chinese cabbage discs.
For `CCC(C)C1OC2(C=CC1C)CC1CC(CC=C(C)C(OC3CC(OC)C(OC(=O)C(C)N4CCN(C(=O)OC(C)(C)C)CC4)C(C)O3)C(C)C=CC=C3COC4C(O)C(C)=CC(C(=O)O1)C34O)O2` (mixture of isomers) [Example 77], the “Kill rate in % after 7 days” value came out at 100%.
Same read-out and setting: under `CC[C@H](C)[C@H]1OC2(CC[C@@H]1C)C[C@@H]1C[C@@H](C/C=C(\C)[C@@H](OC3CC(OC)C(OC(=O)Cn4cccn4)C(C)O3)[C@@H](C)/C=C/C=C3\CO[C@@H]4[C@H](O)C(C)=CC(C(=O)O1)[C@]34O)O2` (some centres unmarked) [Example 22] stands 100%.
Same read-out and setting: under `CC[C@H](C)[C@H]1OC2(C=C[C@@H]1C)C[C@@H]1C[C@@H](C/C=C(\C)[C@@H](OC3CC(OC)C(OC(=O)CC4CCCO4)C(C)O3)[C@@H](C)/C=C/C=C3\CO[C@@H]4[C@H](O)C(C)=CC(C(=O)O1)[C@]34O)O2` (some centres unmarked) [Example 31] stands 100%; under `CC[C@H](C)[C@H]1OC2(C=C[C@@H]1C)C[C@@H]1C[C@@H](C/C=C(\C)[C@@H](OC3CC(OC)C(OC(=O)C4CC4(Cl)Cl)C(C)O3)[C@@H](C)/C=C/C=C3\CO[C@@H]4[C@H](O)C(C)=CC(C(=O)O1)[C@]34O)O2` (some centres unmarked) [Example 37], 100%; under `CC[C@H](C)[C@H]1OC2(C=C[C@@H]1C)C[C@@H]1C[C@@H](C/C=C(\C)[C@@H](OC3CC(OC)C(OC(=O)Cn4nc(C(F)(F)F)cc4OC)C(C)O3)[C@@H](C)/C=C/C=C3\CO[C@@H]4[C@H](O)C(C)=CC(C(=O)O1)[C@]34O)O2` (some centres unmarked) [Example 41], 83%.
Still for that read-out and setting: under `CC[C@H](C)[C@H]1OC2(C=C[C@@H]1C)C[C@@H]1C[C@@H](C/C=C(\C)[C@@H](OC3CC(OC)C(OC(=O)Cc4c(C)noc4C)C(C)O3)[C@@H](C)/C=C/C=C3\CO[C@@H]4[C@H](O)C(C)=CC(C(=O)O1)[C@]34O)O2` (some centres unmarked) [Example 43] stands 100%.
Turning to `CC[C@H](C)[C@H]1OC2(C=C[C@@H]1C)C[C@@H]1C[C@@H](C/C=C(\C)[C@@H](OC3CC(OC)C(OC(=O)Cn4c(C)ccc4C)C(C)O3)[C@@H](C)/C=C/C=C3\CO[C@@H]4[C@H](O)C(C)=CC(C(=O)O1)[C@]34O)O2` (some centres unmarked) [Example 44], the “Kill rate in % after 7 days” value is listed as 100%.
For the compound `CC[C@H](C)[C@H]1OC2(C=C[C@@H]1C)C[C@@H]1C[C@@H](C/C=C(\C)[C@@H](OC3CC(OC)C(OC(=O)CN4CCC(NC(=O)OC(C)(C)C)CC4)C(C)O3)[C@@H](C)/C=C/C=C3\CO[C@@H]4[C@H](O)C(C)=CC(C(=O)O1)[C@]34O)O2` (some centres unmarked) [Example 51], the “Kill rate in % after 7 days” value is recorded as 100%.
On the same count and under the same terms, under `CC[C@H](C)[C@H]1OC2(C=C[C@@H]1C)C[C@@H]1C[C@@H](C/C=C(\C)[C@@H](OC3CC(OC)C(OC(=O)CN4CCN(C(=O)OC(C)(C)C)CC4)C(C)O3)[C@@H](C)/C=C/C=C3\CO[C@@H]4[C@H](O)C(C)=CC(C(=O)O1)[C@]34O)O2` (some centres unmarked) [Example 53, 4′-O-{[4-(tert-Butoxycarbonyl)piperazin-1-yl]acetyl}-avermectin B1 monosaccharide] stands 100%.
For the compound `CC[C@H](C)[C@H]1OC2(C=C[C@@H]1C)C[C@@H]1C[C@@H](C/C=C(\C)[C@@H](OC3CC(OC)C(OC(=O)C(C)n4ccnn4)C(C)O3)[C@@H](C)/C=C/C=C3\CO[C@@H]4[C@H](O)C(C)=CC(C(=O)O1)[C@]34O)O2` (some centres unmarked) [Example 56], the “Kill rate in % after 7 days” value amounted to 100%.
On the same count and under the same terms, as for `CC[C@H](C)[C@H]1OC2(C=C[C@@H]1C)C[C@@H]1C[C@@H](C/C=C(\C)[C@@H](OC3CC(OC)C(OC(=O)C(C)n4ccnc4)C(C)O3)[C@@H](C)/C=C/C=C3\CO[C@@H]4[C@H](O)C(C)=CC(C(=O)O1)[C@]34O)O2` (some centres unmarked) [Example 58], the figure is 100%.
Still for that read-out and setting: as for `CC[C@H](C)[C@H]1OC2(C=C[C@@H]1C)C[C@@H]1C[C@@H](C/C=C(\C)[C@@H](OC3CC(OC)C(OC(=O)C(C)n4ccnn4)C(C)O3)[C@@H](C)/C=C/C=C3\CO[C@@H]4[C@H](O)C(C)=CC(C(=O)O1)[C@]34O)O2` (some centres unmarked) [Example 61], the figure is 100%.
The same measure, in the same setting: under `CC[C@H](C)[C@H]1OC2(C=C[C@@H]1C)C[C@@H]1C[C@@H](C/C=C(\C)[C@@H](OC3CC(OC)C(OC(=O)C(C)n4cccn4)C(C)O3)[C@@H](C)/C=C/C=C3\CO[C@@H]4[C@H](O)C(C)=CC(C(=O)O1)[C@]34O)O2` (some centres unmarked) [Example 62] stands 100%.
With `CC[C@H](C)[C@H]1OC2(C=C[C@@H]1C)C[C@@H]1C[C@@H](C/C=C(\C)[C@@H](OC3CC(OC)C(OC(=O)Cn4nc(C)n(C)c4=O)C(C)O3)[C@@H](C)/C=C/C=C3\CO[C@@H]4[C@H](O)C(C)=CC(C(=O)O1)[C@]34O)O2` (some centres unmarked) [Example 63], the “Kill rate in % after 7 days” value worked out at 100%.
Still for that read-out and setting: under `CC[C@H](C)[C@H]1OC2(C=C[C@@H]1C)C[C@@H]1C[C@@H](C/C=C(\C)[C@@H](OC3CC(OC)C(OC(=O)Cn4nc(OC)n(C)c4=O)C(C)O3)[C@@H](C)/C=C/C=C3\CO[C@@H]4[C@H](O)C(C)=CC(C(=O)O1)[C@]34O)O2` (some centres unmarked) [Example 64] stands 100%; under `CC[C@H](C)[C@H]1OC2(C=C[C@@H]1C)C[C@@H]1C[C@@H](C/C=C(\C)[C@@H](OC3CC(OC)C(OC(=O)Cc4ccccn4)C(C)O3)[C@@H](C)/C=C/C=C3\CO[C@@H]4[C@H](O)C(C)=CC(C(=O)O1)[C@]34O)O2` (some centres unmarked) [Example 65], 100%.
On the same count and under the same terms, as for `CC[C@H](C)[C@H]1OC2(C=C[C@@H]1C)C[C@@H]1C[C@@H](C/C=C(\C)[C@@H](OC3CC(OC)C(OC(=O)CN4CCOCC4)C(C)O3)[C@@H](C)/C=C/C=C3\CO[C@@H]4[C@H](O)C(C)=CC(C(=O)O1)[C@]34O)O2` (some centres unmarked) [Example 79], the figure is 100%; as for `CC[C@H](C)[C@H]1OC2(C=C[C@@H]1C)C[C@@H]1C[C@@H](C/C=C(\C)[C@@H](OC3CC(OC)C(OC(=O)CN4CCNCC4)C(C)O3)[C@@H](C)/C=C/C=C3\CO[C@@H]4[C@H](O)C(C)=CC(C(=O)O1)[C@]34O)O2` (some centres unmarked) [Example 101, 4′-O-(piperazin-1-ylacetyl)-avermectin B1 monosaccharide], 100%; as for `CC[C@H](C)[C@H]1OC2(C=C[C@@H]1C)C[C@@H]1C[C@@H](C/C=C(\C)[C@@H](OC3CC(OC)C(OC(=O)CNC)C(C)O3)[C@@H](C)/C=C/C=C3\CO[C@@H]4[C@H](O)C(C)=CC(C(=O)O1)[C@]34O)O2` (some centres unmarked) [Example 104], 100%.
